Reference: patent US20040097591A1, “Use of selective progesterone receptor modulators for the treatment of androgen deficiency” (priority 2002, published 2004)

Tests used:
[1] = target: T1, progesterone receptor (Oryctolagus cuniculus, UniProt P06186); details: rabbit model, scale of 0-4; agonistic/antagonistic effect at the progesterone receptor; cited from earlier work
T1 construct: effects of compounds at the progesterone receptor using a rabbit model; from tissue; host or cells: living rabbit (whole-animal model)
T1 sequence (P06186 1-930): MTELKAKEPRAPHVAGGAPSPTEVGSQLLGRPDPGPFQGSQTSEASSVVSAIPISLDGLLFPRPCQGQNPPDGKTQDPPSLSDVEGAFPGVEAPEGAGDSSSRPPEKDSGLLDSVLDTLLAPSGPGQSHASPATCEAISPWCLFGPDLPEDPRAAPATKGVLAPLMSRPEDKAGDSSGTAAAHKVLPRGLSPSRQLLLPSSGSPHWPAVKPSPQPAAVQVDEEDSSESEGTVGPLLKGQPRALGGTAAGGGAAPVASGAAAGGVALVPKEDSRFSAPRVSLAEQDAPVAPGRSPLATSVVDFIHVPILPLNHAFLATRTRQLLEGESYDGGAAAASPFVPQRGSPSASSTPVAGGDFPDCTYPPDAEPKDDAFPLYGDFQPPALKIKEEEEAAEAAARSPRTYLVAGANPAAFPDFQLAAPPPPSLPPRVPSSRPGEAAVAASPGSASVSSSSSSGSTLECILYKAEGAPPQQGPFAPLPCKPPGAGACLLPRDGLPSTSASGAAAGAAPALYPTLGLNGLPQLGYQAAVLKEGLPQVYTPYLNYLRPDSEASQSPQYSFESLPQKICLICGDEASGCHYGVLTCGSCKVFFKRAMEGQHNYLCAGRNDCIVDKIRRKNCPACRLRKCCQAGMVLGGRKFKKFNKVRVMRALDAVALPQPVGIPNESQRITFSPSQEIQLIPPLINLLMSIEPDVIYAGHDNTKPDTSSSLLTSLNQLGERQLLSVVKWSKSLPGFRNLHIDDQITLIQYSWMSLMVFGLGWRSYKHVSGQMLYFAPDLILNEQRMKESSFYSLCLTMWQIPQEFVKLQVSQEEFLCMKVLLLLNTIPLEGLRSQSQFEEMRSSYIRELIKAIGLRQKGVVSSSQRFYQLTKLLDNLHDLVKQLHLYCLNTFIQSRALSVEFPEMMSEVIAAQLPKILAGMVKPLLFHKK

[2] = tested on: testosterone levels; experiment: Phase II study of J867: total testosterone levels over 12 weeks; format: in vivo, female subjects; details: for mean testosterone concentration increase over the treatment period: 12 week treatment, female subjects aged 18-49
Protocol: (§1) The effect of SPRMs on testosterone levels and SHBG levels was studied using various doses of J867 over three months. The study was a phase II, multi-center, randomized, double blind, parallel group study of J867 at doses of 5 mg, 10 mg, and 25 mg once a day (QD)compared to placebo. Approximately 120 female subjects between the ages of 18 and 49 were enrolled in the study and randomly assigned to one of the four dosing groups above. During the 12 week study, testosterone and SHBG were measured at screening visits during weeks 2, 4, 8, and 12 of the study.
FIG. 1 is a graph showing total testosterone levels as a function of time during the study. […] Testosterone concentrations were relatively constant for the group receiving placebo. […] Over the treatment period, the mean testosterone concentrations for the 5 mg QD group increased approximately 7-15 ng/dL; the mean increase for the 10 mg QD group was approximately 15-21 ng/dL; and the mean concentrations observed following treatment with 25 mg QD increased approximately 16-25 ng/dL.

[3] = tested on: SHBG levels; experiment: Phase II study of J867: SHBG levels over 12 weeks; format: in vivo, female subjects
Protocol: as §1
SHBG levels were also measured at weeks 2, 4, 8, and 12 of the study.

| Compound | McPhail score [1] | mean testosterone concentration increase over the treatment period ([2]; 5 mg QD) [ng/dL] | mean testosterone concentration increase over the treatment period ([2]; 10 mg QD) [ng/dL] | mean testosterone concentration increase over the treatment period ([2]; 25 mg QD) [ng/dL] | total testosterone levels (FIG. 1) ([2]; all doses (5, 10, 25 mg QD)) | visit with largest mean increase of testosterone from baseline ([2]; all three dose groups (5, 10, 25 mg QD)) | testosterone concentrations at the end of the study ([2]; all three dose groups, week 12) | mean level of SHBG during treatment ([3]; 5 mg QD) | mean level of SHBG during treatment ([3]; 10 mg QD) | mean level of SHBG during treatment ([3]; 25 mg QD) | SHBG during the treatment period of three months (FIG. 2) ([3]; weeks 2, 4, 8, 12, doses not separated) |
| --- | --- | --- | --- | --- | --- | --- | --- | --- | --- | --- | --- |
| CC(=O)[C@H]1CC[C@H]2[C@@H]3CCC4=CC(=O)CC[C@]4(C)[C@H]3CC[C@]12C [progesterone] | 4 |  |  |  |  |  |  |  |  |  |  |
| CC#C[C@]1(O)CC[C@H]2[C@@H]3CCC4=CC(=O)CCC4=C3[C@@H](c3ccc(N(C)C)cc3)C[C@@]21C [RU486, mifepristone] | less than 0.5 |  |  |  |  |  |  |  |  |  |  |
| COC[C@]1(OC)CC[C@H]2[C@@H]3CCC4=CC(=O)CCC4=C3[C@@H](c3ccc(/C=N/O)cc3)C[C@@]21C [J867, [4-[17β-Methoxy-17α-(methoxymethyl)-3-oxoestra-4,9-dien-11β-yl]benzaldehyd-(1E)-oxim]] |  | 7 to 15 | 15 to 21 | 16 to 25 | testosterone levels increased with all doses | week 2 visit | still elevated above baseline | remained relatively constant | decreased from baseline | decreased from baseline | a decrease in SHBG |
